Drawing on PMC6934184, “Selective DNA-PKcs inhibition extends the therapeutic index of localized radiotherapy and chemotherapy” (The Journal of Clinical Investigation, 2019), this text covers inhibition for one molecule.

This experiment concerns the target T1, MKNK2 (MNK2) (Homo sapiens, UniProt Q9HBH9).
T1 construct: purchased Thermo Fisher Scientific (Life Technologies) SelectScreen
Nature of the experiment: SelectScreen LanthaScreen. Format: binding. The following applies: read-out: % displacement. The method in brief: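 NU5455 was profiled across the SelectScreen Broad panel of kinase activity and binding assays. Z'LYTE reactions such as CSF1R ran at apparent Km ATP, while the Adapta CAMK1 assay used ATP listed as 10. Values are given as percent.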

T1 sequence (Q9HBH9 whole entry): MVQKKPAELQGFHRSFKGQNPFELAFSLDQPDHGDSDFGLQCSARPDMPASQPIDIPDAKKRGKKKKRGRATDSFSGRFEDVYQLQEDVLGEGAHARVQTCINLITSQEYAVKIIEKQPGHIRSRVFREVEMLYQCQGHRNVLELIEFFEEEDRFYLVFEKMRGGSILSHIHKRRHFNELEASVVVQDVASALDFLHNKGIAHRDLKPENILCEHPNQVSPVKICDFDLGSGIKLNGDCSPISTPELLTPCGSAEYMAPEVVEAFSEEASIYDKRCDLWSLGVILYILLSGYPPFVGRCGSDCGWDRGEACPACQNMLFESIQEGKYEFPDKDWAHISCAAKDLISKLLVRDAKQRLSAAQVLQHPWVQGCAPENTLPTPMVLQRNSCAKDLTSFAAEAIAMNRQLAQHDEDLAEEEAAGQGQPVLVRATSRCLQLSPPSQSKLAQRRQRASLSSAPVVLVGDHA

For `CN(C(=O)CN1CCOCC1)c1ccc2sc3c(-c4cccc5c(=O)cc(N6CC7CCC(C6)O7)oc45)cccc3c2c1` [NU5455], the inhibition at 1 µM is 0.2%.
